# How the values were obtained:
# [1] = system: SU-DHL-1; assay: SANGER: Inhibition of human SU-DHL-1 cell growth in a cell viability assay.; format: functional, cell-based; settings: Homo sapiens, SU-DHL-1
# [2] = system: SCC-9; assay: cells; format: functional, cell-based, Homo sapiens; settings: Homo sapiens, SCC-9;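 also: Read-out is a cell viability assay, with values giving inhibition of cell growth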
# Description: SANGER: Inhibition of human SCC-9 cell growth in a cell viability assay.
# [3] = system: GCT; assay: cells; format: functional, cell-based, Homo sapiens; settings: Homo sapiens, GCT;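 also: GCT cell line proliferation inhibition, read out with a cell viability assay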
# Description: SANGER: Inhibition of human GCT cell growth in a cell viability assay.
# [4] = system: 769-P; assay: cells; format: functional, cell-based, Homo sapiens; settings: Homo sapiens, 769-P
# Description: SANGER: Inhibition of human 769-P cell growth in a cell viability assay.
# [5] = system: HCC1419; assay: cells; format: functional, cell-based, Homo sapiens; settings: Homo sapiens, HCC1419;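 also: growth inhibition of human HCC1419 cells, read out as cell viability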
# Description: SANGER: Inhibition of human HCC1419 cell growth in a cell viability assay.
# [6] = system: HSC-2; assay: cells; format: functional, cell-based, Homo sapiens; settings: Homo sapiens, HSC-2;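 also: growth inhibition of human HSC-2 cells, read out by a cell viability assay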
# Description: SANGER: Inhibition of human HSC-2 cell growth in a cell viability assay.
# [7] = system: OAW-42; assay: cells; format: functional, cell-based, Homo sapiens; settings: Homo sapiens, OAW-42;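 also: growth inhibition of OAW-42 cells, read out with a cell viability assay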
# Description: SANGER: Inhibition of human OAW-42 cell growth in a cell viability assay.
# [8] = system: COLO-741; assay: cells; format: functional, cell-based, Homo sapiens; settings: Homo sapiens, COLO-741
# Description: SANGER: Inhibition of human COLO-741 cell growth in a cell viability assay.
# [9] = system: KYSE-410; assay: cells; format: functional, cell-based, Homo sapiens; settings: Homo sapiens, KYSE-410;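 also: growth inhibition of KYSE-410 cells, measured through a cell viability readout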
# Description: SANGER: Inhibition of human KYSE-410 cell growth in a cell viability assay.
# [10] = system: NCI-H889; assay: cells; format: functional, cell-based, Homo sapiens; settings: Homo sapiens, NCI-H889;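 also: cell growth inhibition of the cell line, read out with a viability assay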
# Description: SANGER: Inhibition of human NCI-H889 cell growth in a cell viability assay.
# [11] = system: RPMI-2650; assay: cells; format: functional, cell-based, Homo sapiens; settings: Homo sapiens, RPMI-2650
# Description: SANGER: Inhibition of human RPMI-2650 cell growth in a cell viability assay.
# [12] = system: RVH-421; assay: cells; format: functional, cell-based, Homo sapiens; settings: Homo sapiens, RVH-421
# Description: SANGER: Inhibition of human RVH-421 cell growth in a cell viability assay.
# [13] = system: SCC-25; assay: cells; format: functional, cell-based, Homo sapiens; settings: Homo sapiens, SCC-25;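 also: growth inhibition of SCC-25 cells, measured with a cell viability assay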
# Description: SANGER: Inhibition of human SCC-25 cell growth in a cell viability assay.
# [14] = system: NCI-H2342; assay: cells; format: functional, cell-based, Homo sapiens; settings: Homo sapiens, NCI-H2342;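 also: growth inhibition of the cancer cell line, determined with a cell viability assay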
# Description: SANGER: Inhibition of human NCI-H2342 cell growth in a cell viability assay.
# [15] = system: NCI-H524; assay: cells; format: functional, cell-based, Homo sapiens; settings: Homo sapiens, NCI-H524;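 also: growth inhibition of human NCI-H524 cells, read out through a cell viability assay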
# Description: SANGER: Inhibition of human NCI-H524 cell growth in a cell viability assay.
# [16] = system: IMR-5; assay: cells; format: functional, cell-based, Homo sapiens; settings: Homo sapiens, IMR-5;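 also: growth inhibition of human IMR-5 cells, read out with a cell viability assay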
# Description: SANGER: Inhibition of human IMR-5 cell growth in a cell viability assay.
# [17] = system: CAL-12T; assay: cells; format: functional, cell-based, Homo sapiens; settings: Homo sapiens, CAL-12T;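 also: growth inhibition of human CAL-12T cells, read out with a cell viability assay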
# Description: SANGER: Inhibition of human CAL-12T cell growth in a cell viability assay.
# [18] = system: TE-15; assay: cells; format: functional, cell-based, Homo sapiens; settings: Homo sapiens, TE-15;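 also: cell viability readout of growth inhibition in TE-15 cells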
# Description: SANGER: Inhibition of human TE-15 cell growth in a cell viability assay.
# [19] = system: U-698-M; assay: cells; format: functional, cell-based, Homo sapiens; settings: Homo sapiens, U-698-M
# Description: SANGER: Inhibition of human U-698-M cell growth in a cell viability assay.
# [20] = system: RERF-LC-MS; assay: cells; format: functional, cell-based, Homo sapiens; settings: Homo sapiens, RERF-LC-MS;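 also: growth inhibition of human RERF-LC-MS cells, read out by a cell viability assay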
# Description: SANGER: Inhibition of human RERF-LC-MS cell growth in a cell viability assay.
# [21] = system: SAOS-2; assay: cells; format: functional, cell-based, Homo sapiens; settings: Homo sapiens, SAOS-2;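 also: growth inhibition of human Saos-2 cells determined by a cell viability assay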
# Description: SANGER: Inhibition of human Saos-2 cell growth in a cell viability assay.
# [22] = system: DMS-273; assay: cells; format: functional, cell-based, Homo sapiens; settings: Homo sapiens, DMS-273
# Description: SANGER: Inhibition of human DMS-273 cell growth in a cell viability assay.
# [23] = system: SBC-5; assay: cells; format: functional, cell-based, Homo sapiens; settings: Homo sapiens, SBC-5;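 also: cell viability assay read-out, IC50 is the concentration that inhibits growth of the cells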
# Description: SANGER: Inhibition of human SBC-5 cell growth in a cell viability assay.
# [24] = system: MKN-28; assay: cells; format: functional, cell-based, Homo sapiens; settings: Homo sapiens, MKN-28;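 also: cell viability assay read-out, IC50 reflects suppression of growth of human MKN-28 cells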
# Description: SANGER: Inhibition of human MKN28 cell growth in a cell viability assay.
# [25] = system: NCI-H28; assay: cells; format: functional, cell-based, Homo sapiens; settings: Homo sapiens, NCI-H28;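 also: growth inhibition of human NCI-H28 cells, read out as cell viability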
# Description: SANGER: Inhibition of human NCI-H28 cell growth in a cell viability assay.
# [26] = system: RT-112; assay: cells; format: functional, cell-based, Homo sapiens; settings: Homo sapiens, RT-112
# Description: SANGER: Inhibition of human RT-112 cell growth in a cell viability assay.
# [27] = system: 786-0; assay: cells; format: functional, cell-based, Homo sapiens; settings: Homo sapiens
# Description: SANGER: Inhibition of human 786-0 cell growth in a cell viability assay.
# [28] = system: SW1088; assay: cells; format: functional, cell-based, Homo sapiens; settings: Homo sapiens, SW1088;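 also: growth inhibition of human SW1088 cells, read out by a cell viability assay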
# Description: SANGER: Inhibition of human SW1088 cell growth in a cell viability assay.
# [29] = system: KARPAS-422; assay: cells; format: functional, cell-based, Homo sapiens; settings: Homo sapiens, KARPAS-422
# Description: SANGER: Inhibition of human KARPAS-422 cell growth in a cell viability assay.
# [30] = system: SW1783; assay: cells; format: functional, cell-based, Homo sapiens; settings: Homo sapiens, SW1783
# Description: SANGER: Inhibition of human SW1783 cell growth in a cell viability assay.
# [31] = system: TE-441-T; assay: cells; format: functional, cell-based, Homo sapiens; settings: Homo sapiens, TE-441-T
# Description: SANGER: Inhibition of human TE-441-T cell growth in a cell viability assay.
# [32] = system: MDA-MB-361; assay: cells; format: functional, cell-based, Homo sapiens; settings: Homo sapiens, MDA-MB-361
# [33] = system: HCC1954; assay: cells; format: functional, cell-based, Homo sapiens; settings: Homo sapiens, HCC1954;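 also: growth inhibition of human HCC1954 cells, read out with a cell viability assay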
# Description: SANGER: Inhibition of human HCC1954 cell growth in a cell viability assay.
# [34] = system: RMG-I; assay: cells; format: functional, cell-based, Homo sapiens; settings: Homo sapiens, RMG-I;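 also: growth inhibition of human RMG-I cells, read out with a cell viability assay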
# Description: SANGER: Inhibition of human RMG-I cell growth in a cell viability assay.
# [35] = system: OVCAR-8; assay: cells; format: functional, cell-based, Homo sapiens; settings: Homo sapiens, OVCAR-8;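 also: growth inhibition of human OVCAR-8 cells, read out by a cell viability assay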
# Description: SANGER: Inhibition of human OVCAR-8 cell growth in a cell viability assay.
# [36] = system: CAL-51; assay: cells; format: functional, cell-based, Homo sapiens; settings: Homo sapiens, CAL-51;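 also: human CAL-51 cell line, growth inhibition read out via a cell viability assay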
# Description: SANGER: Inhibition of human CAL-51 cell growth in a cell viability assay.
# [37] = system: H4; assay: cells; format: functional, cell-based, Homo sapiens; settings: Homo sapiens, H4
# Description: SANGER: Inhibition of human H4 cell growth in a cell viability assay.
# [38] = system: SJRH30; assay: cells; format: functional, cell-based, Homo sapiens; settings: Homo sapiens, SJRH30;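 also: growth inhibition of human SJRH30 cells, read out with a cell viability assay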
# Description: SANGER: Inhibition of human SJRH30 cell growth in a cell viability assay.
# [39] = system: NCI-H661; assay: cells; format: functional, cell-based, Homo sapiens; settings: Homo sapiens, NCI-H661;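 also: cell viability assay read-out, IC50 being the concentration that inhibits growth of the cells by half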
# Description: SANGER: Inhibition of human NCI-H661 cell growth in a cell viability assay.
# [40] = system: NCI-H719; assay: cells; format: functional, cell-based, Homo sapiens; settings: Homo sapiens, NCI-H719;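 also: growth inhibition of the cultured cell line, read out with a viability assay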
# Description: SANGER: Inhibition of human NCI-H719 cell growth in a cell viability assay.
# [41] = system: HCC1569; assay: cells; format: functional, cell-based, Homo sapiens; settings: Homo sapiens, HCC1569;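 also: growth inhibition of human HCC1569 cells, read out with a cell viability assay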
# Description: SANGER: Inhibition of human HCC1569 cell growth in a cell viability assay.
# [42] = system: KYSE-150 cell line; assay: cells; format: functional, cell-based, Homo sapiens; settings: Homo sapiens, KYSE-150;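 also: growth inhibition of human KYSE-150 cells, read out with a cell viability assay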
# Description: SANGER: Inhibition of human KYSE-150 cell growth in a cell viability assay.
smiles,measurement,setting,value
O=C(O)c1ccc(-c2c[nH]c3ncc(-c4ccccc4)cc23)cc1C1CCCC1 [GSK-650394],IC50,[1],> 16000 nM
same,IC50,[2],> 16000 nM
same,IC50,[3],> 16000 nM
same,IC50,[4],4890 nM
same,IC50,[5],> 16000 nM
same,IC50,[6],> 16000 nM
same,IC50,[7],> 16000 nM
same,IC50,[8],> 16000 nM
same,IC50,[9],> 16000 nM
same,IC50,[10],> 16000 nM
same,IC50,[11],> 16000 nM
same,IC50,[12],> 16000 nM
same,IC50,[13],> 16000 nM
same,IC50,[14],2190 nM
same,IC50,[15],> 16000 nM
same,IC50,[16],9190 nM
same,IC50,[17],2710 nM
same,IC50,[18],2590 nM
same,IC50,[19],> 16000 nM
same,IC50,[20],> 16000 nM
same,IC50,[21],> 16000 nM
same,IC50,[22],> 16000 nM
same,IC50,[23],14900 nM
same,IC50,[24],11700 nM
same,IC50,[25],> 16000 nM
same,IC50,[26],1030 nM
same,IC50,[27],2950 nM
same,IC50,[28],> 16000 nM
same,IC50,[29],> 16000 nM
same,IC50,[30],> 16000 nM
same,IC50,[31],> 16000 nM
same,IC50,[32],> 16000 nM
same,IC50,[33],> 16000 nM
same,IC50,[34],> 16000 nM
same,IC50,[35],11300 nM
same,IC50,[36],5360 nM
same,IC50,[37],> 16000 nM
same,IC50,[38],> 16000 nM
same,IC50,[39],> 16000 nM
same,IC50,[40],> 16000 nM
same,IC50,[41],> 16000 nM
same,IC50,[42],10400 nM
CCC/C=C/C=C/C(=O)O[C@H]1/C(=C/C(=O)OC)C[C@H]2C[C@H]([C@@H](C)O)OC(=O)C[C@H](O)C[C@@H]3C[C@H](OC(C)=O)C(C)(C)[C@](O)(C[C@@H]4C/C(=C/C(=O)OC)C[C@H](/C=C/C(C)(C)[C@]1(O)O2)O4)O3 [BRYOSTATIN 1],IC50,[1],> 8 nM
same,IC50,[2],> 8 nM
same,IC50,[3],> 8 nM
same,IC50,[4],> 8 nM
same,IC50,[5],> 8 nM
same,IC50,[6],> 8 nM
same,IC50,[7],> 8 nM
same,IC50,[8],> 8 nM
same,IC50,[9],> 8 nM
same,IC50,[10],> 8 nM
same,IC50,[11],> 8 nM
same,IC50,[12],> 8 nM
same,IC50,[13],> 8 nM
same,IC50,[14],> 8 nM
same,IC50,[15],> 8 nM
same,IC50,[16],> 8 nM
same,IC50,[17],> 8 nM
same,IC50,[18],> 8 nM
same,IC50,[19],> 8 nM
same,IC50,[20],> 8 nM
same,IC50,[21],> 8 nM
same,IC50,[22],> 8 nM
same,IC50,[23],> 8 nM
same,IC50,[24],> 8 nM
same,IC50,[25],> 8 nM
same,IC50,[26],> 8 nM
same,IC50,[27],> 8 nM
same,IC50,[28],> 8 nM
same,IC50,[29],> 8 nM
same,IC50,[30],> 8 nM
same,IC50,[31],> 8 nM
same,IC50,[32],> 8 nM
same,IC50,[33],> 8 nM
same,IC50,[34],> 8 nM
same,IC50,[35],> 8 nM
same,IC50,[36],> 8 nM
same,IC50,[37],> 8 nM
same,IC50,[38],> 8 nM
same,IC50,[39],> 8 nM
same,IC50,[40],> 8 nM
same,IC50,[41],> 8 nM
same,IC50,[42],> 8 nM
